Test systems include OVCAR-8; DMS-114; HOP-92; NCI-H460; SN12C; KM12; CCRF-CEM; NCI-H226; RPMI-8226; 786-0; M19-MEL; IGROV-1; HCT-15; OVCAR-3; NCI-H23; UO-31; SK-MEL-2.
Test in all cases: NCI-60 cell line screen, 48 h

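A five-concentration, 48-hour dose response in 96-well plates underlies each endpoint, interpolated linearly between surrounding concentrations. At the GI50, growth is halved.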 Calls of active or inactive are those of the source. No stated cut-off is given here; in the data, active = GI50 up to about 1.1 µM and inactive = higher. Some results are limits rather than exact numbers.

Regarding `Cc1ccc(C(=O)/C=C/c2ccccc2Cl)cc1`, the GI50 with OVCAR-8 is 15.8 µM (inactive); in the test on DMS-114 it was 18.3 µM (inactive); in the test on HOP-92, 30.1 µM (inactive); in the test on NCI-H460, 14.9 µM (inactive); with SN12C, 20.6 µM (inactive); in the test with KM12, 15.7 µM (inactive). Also, the GI50 is 18.8 µM (inactive) with CCRF-CEM; 25.1 µM (inactive) in the test with NCI-H226; 15.8 µM (inactive) in the test on RPMI-8226; 16.2 µM (inactive) in the test with 786-0; 18.8 µM (inactive) in the test on M19-MEL; 18.4 µM (inactive) in the test with IGROV-1. Besides, the GI50 with HCT-15 is 15 µM; in the test with OVCAR-3, 17.3 µM (inactive); with NCI-H23, 19 µM (inactive); with UO-31, 18.6 µM (inactive).

As for `Cc1nc(C(N)=S)sc1C(=O)/C=C/c1c(O)ccc2ccccc12`, the GI50 was 68.5 µM (inactive) in the test with OVCAR-8; > 100 µM (inactive) in the test on SK-MEL-2; 32.5 µM (inactive) in the test with DMS-114; > 74.1 µM (inactive) with HOP-92; > 100 µM (inactive) with NCI-H460; > 88.1 µM (inactive) in the test with SN12C. Also, the GI50 is 31.3 µM (inactive) in the test on KM12; 21.6 µM (inactive) with CCRF-CEM; > 100 µM (inactive) in the test on NCI-H226; 29.4 µM (inactive) with RPMI-8226; > 74.3 µM (inactive) in the test on 786-0; 13.8 µM (inactive) with M19-MEL. Further, the GI50 in the test on IGROV-1 was > 100 µM (inactive); with HCT-15, above 95.9 µM; in the test with OVCAR-3 it was 36.6 µM (inactive); in the test on NCI-H23, > 67.5 µM (inactive); in the test on UO-31 it was 58.2 µM (inactive).

`COc1cc(CNC2c3cc4c(cc3C(c3cc(OC)c(OC)c(OC)c3)[C@H]3C(=O)OCC23)OCO4)cc(OC)c1OC` (stereo partly drawn): the GI50 with OVCAR-8 was 0.247 µM (active); with SK-MEL-2 it was 0.426 µM (active); in the test with DMS-114 it was 0.197 µM (active); in the test with HOP-92 it was 0.528 µM (active); with NCI-H460, 0.29 µM (active); in the test on SN12C it was 0.376 µM (active). The GI50 was 0.177 µM (active) in the test on KM12; 0.35 µM (active) in the test with CCRF-CEM; 0.128 µM (active) in the test on NCI-H226; 0.419 µM (active) in the test on RPMI-8226; 0.428 µM (active) with 786-0; 1.28 µM (inactive) in the test with M19-MEL. The GI50 in the test on IGROV-1 is 1.1 µM (active); in the test with HCT-15, 0.324 µM; in the test with OVCAR-3, 0.627 µM (active); in the test with NCI-H23, 0.267 µM (active); in the test on UO-31, 0.792 µM (active).

On to `C/C(CC(=O)CCC(=O)Nc1cccc(C(F)(F)F)c1)=N\NC(=O)NN`, for which the GI50 in the test with OVCAR-8, with SK-MEL-2, with DMS-114, with HOP-92, in the test with NCI-H460 and in the test on SN12C was > 100 µM (inactive) in each case. For the same molecule, the GI50 with KM12, in the test with CCRF-CEM, in the test with NCI-H226, in the test on RPMI-8226, with 786-0 and with M19-MEL was > 100 µM (inactive) throughout. The GI50 was > 100 µM (inactive) in the test on IGROV-1; above 100 µM in the test with HCT-15; > 100 µM (inactive) with OVCAR-3; > 100 µM (inactive) with NCI-H23; > 100 µM (inactive) with UO-31.

As for `CCOc1ccc(NC(=O)C(=O)CC(=O)C2=C(C)Nc3ccccc3S2)cc1`, the GI50 in the test on OVCAR-8, with SK-MEL-2, in the test with DMS-114, in the test on HOP-92, in the test with NCI-H460 and in the test on SN12C was > 50 µM (inactive) each time. Also, the GI50 in the test on KM12, in the test on CCRF-CEM, with NCI-H226, in the test on RPMI-8226, in the test with 786-0 and in the test on M19-MEL was > 50 µM (inactive) each time. Also, the GI50 with IGROV-1 was > 50 µM (inactive); with HCT-15, above 50 µM; in the test on OVCAR-3, > 50 µM (inactive); in the test on NCI-H23, > 50 µM (inactive); in the test with UO-31 it was > 50 µM (inactive).

Turning to `CC[As](CC)SCC1OC(OC(C)=O)C(OC(C)=O)C(OC(C)=O)C1OC(C)=O` (stereo not drawn), the GI50 in the test on OVCAR-8 is 16 µM (inactive); in the test with SK-MEL-2, 12.6 µM (inactive); with DMS-114 it was 4.81 µM (inactive); in the test with HOP-92, 3.15 µM (inactive); with NCI-H460 it was 16.8 µM (inactive); in the test on SN12C it was 14.4 µM (inactive). Moreover, the GI50 with KM12 was 19.5 µM (inactive); in the test with CCRF-CEM, 3.05 µM (inactive); in the test on NCI-H226, 14.3 µM (inactive); with RPMI-8226 it was 6.58 µM (inactive); in the test on 786-0 it was 14.4 µM (inactive); with M19-MEL, 11.8 µM (inactive). For the same molecule, the GI50 with IGROV-1 was 18.3 µM (inactive); in the test on HCT-15 it was 13.6 µM; in the test with OVCAR-3, 14.4 µM (inactive); with NCI-H23, 13.5 µM (inactive); in the test on UO-31 it was 16.2 µM (inactive).

As for `CN(Cc1ccccc1)c1nc(=[N+](C)C)ss1`, the GI50 in the test with OVCAR-8 is > 100 µM (inactive); with SK-MEL-2 it was 25.9 µM (inactive); with DMS-114 it was 20.3 µM (inactive); in the test on HOP-92, > 100 µM (inactive); in the test on NCI-H460, 16.9 µM (inactive); in the test with SN12C, 65 µM (inactive). Besides, the GI50 in the test on KM12 is 9.42 µM (inactive); in the test on CCRF-CEM, 3.55 µM (inactive); with NCI-H226, 8.95 µM (inactive); in the test with RPMI-8226 it was 28.3 µM (inactive); with 786-0, > 100 µM (inactive); with M19-MEL, 41.9 µM (inactive). Also, the GI50 in the test with IGROV-1 is > 100 µM (inactive); in the test on HCT-15, above 100 µM; in the test on NCI-H23 it was 31.8 µM (inactive); with UO-31, > 100 µM (inactive).

Take `CCCCCCCCCCCCCCCCCCOCC(C[N+]1(C)CCC(O)CC1)OCC` (stereo not drawn): the GI50 in the test with OVCAR-8 was 4.2 µM (inactive); in the test on SK-MEL-2, 4.3 µM (inactive); in the test with DMS-114 it was 3.19 µM (inactive); in the test on HOP-92, 1.78 µM (inactive); in the test with SN12C it was 4.06 µM (inactive); with KM12 it was 1.84 µM (inactive). Also, the GI50 in the test with CCRF-CEM was 1.97 µM (inactive); in the test on NCI-H226 it was 3.08 µM (inactive); in the test on RPMI-8226, 2.77 µM (inactive); in the test with 786-0, 4.18 µM (inactive); with M19-MEL it was 3.52 µM (inactive); in the test on IGROV-1, 5.13 µM (inactive). Moreover, the GI50 in the test with OVCAR-3 is 3.85 µM (inactive); in the test with NCI-H23 it was 2.88 µM (inactive); in the test on UO-31, 11.9 µM (inactive).

`CCOC(=O)c1ccc(/N=C\c2ccc(N(CCC#N)CCC#N)cc2)cc1`: the GI50 with OVCAR-8 was 89.1 µM (inactive); in the test on SK-MEL-2, > 100 µM (inactive); in the test on DMS-114, 70 µM (inactive); with HOP-92, > 100 µM (inactive); in the test with NCI-H460 it was > 100 µM (inactive); in the test on SN12C it was > 100 µM (inactive). Moreover, the GI50 in the test with CCRF-CEM is 46.9 µM (inactive); with NCI-H226, > 100 µM (inactive); in the test on RPMI-8226 it was 65.6 µM (inactive); in the test with 786-0, 99.5 µM (inactive); with M19-MEL, 62.8 µM (inactive); in the test on IGROV-1, 81.8 µM (inactive). In addition, the GI50 was 21.4 µM in the test with HCT-15, > 100 µM (inactive) in the test on OVCAR-3, > 100 µM (inactive) in the test on NCI-H23 and 27.2 µM (inactive) in the test with UO-31.
